# Species: Rattus norvegicus
# Assay: DrugMatrix - Regimen: Daily Repeat
# Type: toxicity, organism-based, Sprague-Dawley
# Set-up: regimen Daily Repeat, gender Male, age 6-8 weeks
# Details: in vivo, po, route oral GAVAGE, vehicle .5 % CMC; for BASOPHIL / EOSINOPHIL / ERYTHROCYTE COUNT / HEMATOCRIT / HEMOGLOBIN / LEUKOCYTE COUNT / LYMPHOCYTE / MEAN CORPUSCULAR HEMOGLOBIN / MEAN CORPUSCULAR HEMOGLOBIN CONCENTRATION / MEAN CORPUSCULAR VOLUME / MONOCYTE / NEUTROPHIL / PLATELET COUNT: tissue Blood; for ALANINE AMINOTRANSFERASE / ALBUMIN / ALKALINE PHOSPHATASE / ASPARTATE AMINOTRANSFERASE / BLOOD UREA NITROGEN / CHLORIDE / CHOLESTEROL / CREATINE PHOSPHOKINASE / CREATININE / GLUCOSE / PHOSPHORUS / POTASSIUM / SODIUM / TOTAL BILIRUBIN / TOTAL PROTEIN: tissue Plasma
# [1] = 0 mg/kg, 72 h, dose level Control, time 3 day
# [2] = 0 mg/kg, 120 h, dose level Control, time 5 day
# [3] = 750 mg/kg, 72 h, dose level Low, time 3 day
# [4] = 750 mg/kg, 120 h, dose level Low, time 5 day
# [5] = 2000 mg/kg, 72 h, dose level High, time 3 day
# [6] = 2000 mg/kg, 120 h, dose level High, time 5 day
structure (smiles),measurement,setting,value
NCC(=O)O [GLYCINE],BASOPHIL,[1],0%
same,EOSINOPHIL,[1],0%
same,ERYTHROCYTE COUNT,[1],6.34 x10E6/uL
same,HEMATOCRIT,[1],37.62%
same,HEMOGLOBIN,[1],14.82 G/DL
same,LEUKOCYTE COUNT,[1],11.18 x10E3/uL
same,LYMPHOCYTE,[1],87.5%
same,MEAN CORPUSCULAR HEMOGLOBIN,[1],23.48 pg
same,MEAN CORPUSCULAR HEMOGLOBIN CONCENTRATION,[1],39.5 G/DL
same,MEAN CORPUSCULAR VOLUME,[1],59.45 fL
same,MONOCYTE,[1],1.67%
same,NEUTROPHIL,[1],10.83%
same,PLATELET COUNT,[1],1074.83 x10E3/uL
same,ALANINE AMINOTRANSFERASE,[1],36.5 u/L
same,ALBUMIN,[1],3.9 G/DL
same,ALKALINE PHOSPHATASE,[1],370.17 u/L
same,ASPARTATE AMINOTRANSFERASE,[1],63.17 u/L
same,BLOOD UREA NITROGEN,[1],16.83 mg/dL
same,CHLORIDE,[1],99.33 MEQ/L
same,CHOLESTEROL,[1],64.33 mg/dL
same,CREATINE PHOSPHOKINASE,[1],127 u/L
same,CREATININE,[1],0.55 mg/dL
same,GLUCOSE,[1],173.5 mg/dL
same,PHOSPHORUS,[1],10.08 mg/dL
same,POTASSIUM,[1],6.23 MEQ/L
same,SODIUM,[1],143.5 MEQ/L
same,TOTAL BILIRUBIN,[1],0.52 mg/dL
same,TOTAL PROTEIN,[1],6.35 G/DL
same,BASOPHIL,[2],0%
same,EOSINOPHIL,[2],0.17%
same,ERYTHROCYTE COUNT,[2],6.12 x10E6/uL
same,HEMATOCRIT,[2],37.08%
same,HEMOGLOBIN,[2],14.82 G/DL
same,LEUKOCYTE COUNT,[2],11.87 x10E3/uL
same,LYMPHOCYTE,[2],83.33%
same,MEAN CORPUSCULAR HEMOGLOBIN,[2],24.25 pg
same,MEAN CORPUSCULAR HEMOGLOBIN CONCENTRATION,[2],39.97 G/DL
same,MEAN CORPUSCULAR VOLUME,[2],60.65 fL
same,MONOCYTE,[2],1.5%
same,NEUTROPHIL,[2],15%
same,PLATELET COUNT,[2],1042.83 x10E3/uL
same,ALANINE AMINOTRANSFERASE,[2],46 u/L
same,ALBUMIN,[2],3.82 G/DL
same,ALKALINE PHOSPHATASE,[2],369.5 u/L
same,ASPARTATE AMINOTRANSFERASE,[2],65 u/L
same,BLOOD UREA NITROGEN,[2],16.33 mg/dL
same,CHLORIDE,[2],100.67 MEQ/L
same,CHOLESTEROL,[2],57.17 mg/dL
same,CREATINE PHOSPHOKINASE,[2],130 u/L
same,CREATININE,[2],0.53 mg/dL
same,GLUCOSE,[2],163.33 mg/dL
same,PHOSPHORUS,[2],9.53 mg/dL
same,POTASSIUM,[2],6.27 MEQ/L
same,SODIUM,[2],144.83 MEQ/L
same,TOTAL BILIRUBIN,[2],0.55 mg/dL
same,TOTAL PROTEIN,[2],6.32 G/DL
same,BASOPHIL,[3],0%
same,EOSINOPHIL,[3],0%
same,ERYTHROCYTE COUNT,[3],6.2 x10E6/uL
same,HEMATOCRIT,[3],37.37%
same,HEMOGLOBIN,[3],14.17 G/DL
same,LEUKOCYTE COUNT,[3],11.6 x10E3/uL
same,LYMPHOCYTE,[3],90%
same,MEAN CORPUSCULAR HEMOGLOBIN,[3],22.83 pg
same,MEAN CORPUSCULAR HEMOGLOBIN CONCENTRATION,[3],37.97 G/DL
same,MEAN CORPUSCULAR VOLUME,[3],60.17 fL
same,MONOCYTE,[3],0%
same,NEUTROPHIL,[3],10%
same,PLATELET COUNT,[3],1191.67 x10E3/uL
same,ALANINE AMINOTRANSFERASE,[3],28 u/L
same,ALBUMIN,[3],3.4 G/DL
same,ALKALINE PHOSPHATASE,[3],270.33 u/L
same,ASPARTATE AMINOTRANSFERASE,[3],46.67 u/L
same,BLOOD UREA NITROGEN,[3],9 mg/dL
same,CHLORIDE,[3],102.33 MEQ/L
same,CHOLESTEROL,[3],55.33 mg/dL
same,CREATINE PHOSPHOKINASE,[3],104.33 u/L
same,CREATININE,[3],0.4 mg/dL
same,GLUCOSE,[3],165 mg/dL
same,PHOSPHORUS,[3],10.73 mg/dL
same,POTASSIUM,[3],6.07 MEQ/L
same,SODIUM,[3],148 MEQ/L
same,TOTAL BILIRUBIN,[3],0.17 mg/dL
same,TOTAL PROTEIN,[3],5.43 G/DL
same,BASOPHIL,[4],0%
same,EOSINOPHIL,[4],0%
same,ERYTHROCYTE COUNT,[4],6.26 x10E6/uL
same,HEMATOCRIT,[4],38.2%
same,HEMOGLOBIN,[4],15 G/DL
same,LEUKOCYTE COUNT,[4],13 x10E3/uL
same,LYMPHOCYTE,[4],89.67%
same,MEAN CORPUSCULAR HEMOGLOBIN,[4],23.97 pg
same,MEAN CORPUSCULAR HEMOGLOBIN CONCENTRATION,[4],39.27 G/DL
same,MEAN CORPUSCULAR VOLUME,[4],61.1 fL
same,MONOCYTE,[4],0.33%
same,NEUTROPHIL,[4],10%
same,PLATELET COUNT,[4],1041.67 x10E3/uL
same,ALANINE AMINOTRANSFERASE,[4],32 u/L
same,ALBUMIN,[4],3.73 G/DL
same,ALKALINE PHOSPHATASE,[4],311.33 u/L
same,ASPARTATE AMINOTRANSFERASE,[4],55.33 u/L
same,BLOOD UREA NITROGEN,[4],12.33 mg/dL
same,CHLORIDE,[4],99.33 MEQ/L
same,CHOLESTEROL,[4],59.67 mg/dL
same,CREATINE PHOSPHOKINASE,[4],148 u/L
same,CREATININE,[4],0.57 mg/dL
same,GLUCOSE,[4],154 mg/dL
same,PHOSPHORUS,[4],11.67 mg/dL
same,POTASSIUM,[4],5.97 MEQ/L
same,SODIUM,[4],144.33 MEQ/L
same,TOTAL BILIRUBIN,[4],0.33 mg/dL
same,TOTAL PROTEIN,[4],6.07 G/DL
same,BASOPHIL,[5],0%
same,EOSINOPHIL,[5],0%
same,ERYTHROCYTE COUNT,[5],6.16 x10E6/uL
same,HEMATOCRIT,[5],36.47%
same,HEMOGLOBIN,[5],14 G/DL
same,LEUKOCYTE COUNT,[5],12.17 x10E3/uL
same,LYMPHOCYTE,[5],89.67%
same,MEAN CORPUSCULAR HEMOGLOBIN,[5],22.77 pg
same,MEAN CORPUSCULAR HEMOGLOBIN CONCENTRATION,[5],38.4 G/DL
same,MEAN CORPUSCULAR VOLUME,[5],59.23 fL
same,MONOCYTE,[5],1.33%
same,NEUTROPHIL,[5],9%
same,PLATELET COUNT,[5],1124.67 x10E3/uL
same,ALANINE AMINOTRANSFERASE,[5],31.33 u/L
same,ALBUMIN,[5],3.53 G/DL
same,ALKALINE PHOSPHATASE,[5],262.33 u/L
same,ASPARTATE AMINOTRANSFERASE,[5],51.67 u/L
same,BLOOD UREA NITROGEN,[5],12 mg/dL
same,CHLORIDE,[5],100.33 MEQ/L
same,CHOLESTEROL,[5],57.33 mg/dL
same,CREATINE PHOSPHOKINASE,[5],113.33 u/L
same,CREATININE,[5],0.37 mg/dL
same,GLUCOSE,[5],157.67 mg/dL
same,PHOSPHORUS,[5],12.17 mg/dL
same,POTASSIUM,[5],6.6 MEQ/L
same,SODIUM,[5],145.67 MEQ/L
same,TOTAL BILIRUBIN,[5],0.2 mg/dL
same,TOTAL PROTEIN,[5],5.57 G/DL
same,BASOPHIL,[6],0%
same,EOSINOPHIL,[6],0.33%
same,ERYTHROCYTE COUNT,[6],6.21 x10E6/uL
same,HEMATOCRIT,[6],36.87%
same,HEMOGLOBIN,[6],14.97 G/DL
same,LEUKOCYTE COUNT,[6],15.13 x10E3/uL
same,LYMPHOCYTE,[6],88.67%
same,MEAN CORPUSCULAR HEMOGLOBIN,[6],24.1 pg
same,MEAN CORPUSCULAR HEMOGLOBIN CONCENTRATION,[6],40.6 G/DL
same,MEAN CORPUSCULAR VOLUME,[6],59.4 fL
same,MONOCYTE,[6],1.33%
same,NEUTROPHIL,[6],9.67%
same,PLATELET COUNT,[6],1238.67 x10E3/uL
same,ALANINE AMINOTRANSFERASE,[6],33.67 u/L
same,ALBUMIN,[6],3.63 G/DL
same,ALKALINE PHOSPHATASE,[6],237 u/L
same,ASPARTATE AMINOTRANSFERASE,[6],55.67 u/L
same,BLOOD UREA NITROGEN,[6],12.33 mg/dL
same,CHLORIDE,[6],100.67 MEQ/L
same,CHOLESTEROL,[6],62 mg/dL
same,CREATINE PHOSPHOKINASE,[6],118.67 u/L
same,CREATININE,[6],0.5 mg/dL
same,GLUCOSE,[6],159.67 mg/dL
same,PHOSPHORUS,[6],11.77 mg/dL
same,POTASSIUM,[6],6.63 MEQ/L
same,SODIUM,[6],146.67 MEQ/L
same,TOTAL BILIRUBIN,[6],0.27 mg/dL
same,TOTAL PROTEIN,[6],5.93 G/DL

# Reference: ChEMBL document CHEMBL3885881, “DrugMatrix”
